Values after ≈ are worked out from the molar mass of the structure shown.
Columns and labels:
Legumain = biological target: T1, Legumain (Homo sapiens, UniProt Q99538); assay: Inhibition of recombinant human legumain using Z-Ala-Ala-Asn-MCA as substrate preincubated with protein followed by substrate addition measured every 2 mins for 60 mins by microplate reader analysis
T1 sequence (Q99538 whole entry): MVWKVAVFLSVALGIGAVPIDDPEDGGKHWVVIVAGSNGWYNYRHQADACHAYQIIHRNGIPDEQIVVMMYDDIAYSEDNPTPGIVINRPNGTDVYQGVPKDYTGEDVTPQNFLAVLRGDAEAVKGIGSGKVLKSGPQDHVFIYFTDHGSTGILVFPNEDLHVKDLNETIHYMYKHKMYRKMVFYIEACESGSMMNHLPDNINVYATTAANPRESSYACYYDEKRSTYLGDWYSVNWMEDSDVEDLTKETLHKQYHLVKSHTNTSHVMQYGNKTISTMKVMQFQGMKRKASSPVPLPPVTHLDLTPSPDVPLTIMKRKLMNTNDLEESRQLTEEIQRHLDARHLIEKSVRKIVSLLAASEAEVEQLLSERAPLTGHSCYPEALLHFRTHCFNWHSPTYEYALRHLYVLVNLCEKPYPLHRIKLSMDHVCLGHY

[1] = Kinetic solubility of compound in pH 7.4 PBS buffer after 90 mins by plate reader analysis; assay type: physicochemical; conditions: read-out: Kinetic_solubility
[2] = Intrinsic clearance in mouse liver microsomes at 1 uM incubated for 50 mins by LC-MS/MS method in presence of NADPH; assay type: ADME; conditions: read-out: CLH
[3] = Intrinsic clearance in rat hepatocytes assessed per 10^6 cells at 1 uM incubated at 37 degC for 50 mins by LC-MS/MS method […]; assay type: ADME, cell-based, Hepatocyte; conditions: read-out: CLH
[4] = Intrinsic clearance in rat liver microsomes at 1 uM incubated for 50 mins by LC-MS/MS method in presence of NADPH; assay type: ADME; conditions: read-out: CLH

SMILES | IC50 (Legumain) | also measured
CCOc1cccc(-c2ccc(CN([C@@H](C)C(=O)N[C@H](C#N)CC(N)=O)S(C)(=O)=O)cc2)c1 | 586 nM | 
CC(C)Oc1cccc(-c2ccc(CN([C@H](C)C(=O)N[C@H](C#N)CC(N)=O)S(C)(=O)=O)cc2)c1 | 5050 nM | 
C[C@@H](C(=O)N[C@H](C#N)CC(N)=O)N(Cc1ccc(-c2cccc(F)c2)cc1)S(C)(=O)=O | 128 nM | solubility kinetic at 1.5 h [1]: 185 µM (≈ 82.6 µg/mL); microsomal CLint at 1 µM [2]: 4 µL/min/mg; hepatocyte CLint at 1 µM [3]: 45 µL/min/1e6 cells; microsomal CLint at 1 µM [4]: 19 µL/min/mg
C[C@H](C(=O)N[C@H](C#N)CC(N)=O)N(Cc1ccc(-c2cc(F)cc(F)c2)cc1)S(C)(=O)=O | 9250 nM | 
CCC[C@@H](C(=O)N[C@H](C#N)CC(N)=O)N(Cc1ccc(-c2cccc(F)c2)cc1)S(C)(=O)=O | 4380 nM | 
C[C@@H](C(=O)N[C@H](C#N)CC(N)=O)N(Cc1ccc(-c2ccccc2F)cc1)S(C)(=O)=O | 356 nM | 
CC(C)Oc1cccc(-c2ccc(CN([C@@H](C)C(=O)N[C@H](C#N)CC(N)=O)S(C)(=O)=O)cc2)c1 | 882 nM | 
CCS(=O)(=O)N(Cc1ccc(-c2cccc(F)c2F)cc1)[C@@H](C)C(=O)N[C@H](C#N)CC(N)=O | 1090 nM | 
CCCS(=O)(=O)N(Cc1ccc(-c2cccc(F)c2F)cc1)[C@@H](C)C(=O)N[C@H](C#N)CC(N)=O | 6740 nM | 
C[C@@H](C(=O)N[C@H](C#N)CC(N)=O)N(Cc1ccc(-c2ccc(F)c(F)c2)cc1)S(C)(=O)=O | 252 nM | 
CC[C@@H](C(=O)N[C@H](C#N)CC(N)=O)N(Cc1ccc(-c2cccc(F)c2F)cc1)S(C)(=O)=O | 5850 nM | 
C[C@@H](C(=O)N[C@H](C#N)CC(N)=O)N(Cc1ccc(-c2cc(F)cc(F)c2)cc1)S(C)(=O)=O | 1360 nM | 
C[C@H](C(=O)N[C@H](C#N)CC(N)=O)N(Cc1ccc(-c2ccccc2F)cc1)S(C)(=O)=O | > 10000 nM | 
CCOc1cccc(-c2ccc(CN([C@H](C)C(=O)N[C@H](C#N)CC(N)=O)S(C)(=O)=O)cc2)c1 | > 10000 nM | 
C[C@@H](C(=O)N[C@H](C#N)CC(N)=O)N(Cc1ccc(-c2cccc(F)c2F)cc1)S(C)(=O)=O | 323 nM | solubility kinetic at 1.5 h [1]: 181 µM (≈ 84.1 µg/mL); microsomal CLint at 1 µM [2]: 3 µL/min/mg; hepatocyte CLint at 1 µM [3]: 38 µL/min/1e6 cells; microsomal CLint at 1 µM [4]: 17 µL/min/mg
COc1cccc(-c2ccc(CN([C@@H](C)C(=O)N[C@H](C#N)CC(N)=O)S(C)(=O)=O)cc2)c1 | 378 nM | solubility kinetic at 1.5 h [1]: 193 µM (≈ 88.5 µg/mL); microsomal CLint at 1 µM [2]: 24 µL/min/mg; hepatocyte CLint at 1 µM [3]: 69 µL/min/1e6 cells; microsomal CLint at 1 µM [4]: 38 µL/min/mg
C[C@H](C(=O)N[C@H](C#N)CC(N)=O)N(Cc1ccc(-c2cccc(F)c2F)cc1)S(C)(=O)=O | 1460 nM | 
CC(C)CS(=O)(=O)N(Cc1ccc(-c2cccc(F)c2)cc1)[C@@H](C)C(=O)N[C@H](C#N)CC(N)=O | 2270 nM | 
C[C@H](C(=O)N[C@H](C#N)CC(N)=O)N(Cc1ccc(-c2ccc(F)c(F)c2)cc1)S(C)(=O)=O | 6300 nM | 
C[C@H](C(=O)N[C@H](C#N)CC(N)=O)N(Cc1ccc(-c2cccc(F)c2)cc1)S(C)(=O)=O | 2260 nM | 
COc1cccc(-c2ccc(CN([C@H](C)C(=O)N[C@H](C#N)CC(N)=O)S(C)(=O)=O)cc2)c1 | 5850 nM | 
CCC[C@@H](C(=O)N[C@H](C#N)CC(N)=O)N(Cc1ccc(-c2cccc(F)c2F)cc1)S(C)(=O)=O | 7750 nM | 
CC(C(=O)N[C@H](C#N)CC(N)=O)N(Cc1ccc(-c2cccc(Cl)c2)cc1)S(C)(=O)=O (mixture of isomers) | 425 nM | 

Reference: ChEMBL document CHEMBL3745651, “Flat SAR of P3-methylsulphonamide based small molecule legumain inhibitors” (Bioorg Med Chem Lett, 2016)
